Measured values reported in US20100061994A1, “MEDICAL USES OF 39-DESMETHOXYRAPAMYCIN AND ANALOGUES THEREOF” (priority 2005, published 2010).

How the values were obtained:
U87-MG = assay: Glioma orthotopically xenografted in nude mice, MRI tumour volume; format: in vivo; details: 3 mg/kg/inj IV, (Q1D×3)×5W, MRI at D23, mean of 4 values
Procedure: The test compound was dissolved in ethanol (0.027 mL/mg compound) and vortexed for 20 min until the solution was clear. Ethanolic solutions were aliquoted as appropriate and stored at −20° C.
The test substance and control vehicle were administered intravenously (IV, bolus) by injection into the caudal vein of the test mice. An injection volume of 10 mL/kg was used, based on the most recent body weight of mice.
The cell line used for the study was U87-MG, a glioblastoma cell line initiated by J. Ponten from a […] glioblastoma from a person (Poten et al., 1968).
Mice were stereotaxically injected with U87-MG cells at D, 24 to 48 hours after a whole body irradiation with a γ-source (2.5 Gy, Co^60, INRA BRETENIERE, Dijon). For the stereotaxic injection of tumour cells, mice were anesthetised by an intraperitoneal injection of Ketamine 100 mg/kg (Ketamine500®, Ref 043KET204, Centravet, France) and Xylazine 5 mg/kg (Rompun®, Ref 002ROM001, Centravet, France) in 0.9% NaCl solution at 10 mL/kg/inj. […]
After tripilot acquisitions, a turboRare T2 weighted sequence was performed. […] The tumour volume was determined by manually drawing a region of interest (ROI) around the tumour in each slice and by summation of all the surfaces.
Additionally the MRI analysis was used to calculate the average calculated tumour volume per treatment group, the results are summarised in Table 13 below. […]

EAE = assay: Experimental allergic encephalomyelitis (EAE) model of multiple sclerosis; format: in vivo, male Lewis rats
[1] = mouse, in vivo
Procedure: The test compounds were prepared in a vehicle consisting of 4% Ethanol, 5% Tween-20, 5% polyethyleneglycol 400 in 0.15M NaCl. A single dbse of 10 mg/kg p.o. or 3 mg/kg i.v. was administered to groups of female CD1 mice (3 mice for each compound per time point). At 0 min, 4 min, 15 min, 1 h, 4 h, and 24 h groups were sacrificed and the blood and the brain were collected from each mouse for further analysis.
The brain samples were snap frozen in liquid nitrogen and stored at −20° C. A minimum of 0.2 mL of whole blood from each animal was collected in tubes containing ethylene diamine tetra-acetic acid (EDTA) as anticoagulant, thoroughly mixed, and stored at −20° C.
Analysis was performed by ASI Limited, (St George's Hospital Medical School, London). The concentration of the test compound in the blood and brain samples supplied was determined by HPLC with MS detection. Control, test compound free, blood samples were obtained from Harlan Sera-Lab Limited, (Loughborough, England). Time zero brain samples were supplied as control, test compound free, brain samples.
One hemisphere of each brain was homogenized with 5 mL water.
The control or test sample of mouse brain or blood (0.05 mL), internal standard solution (0.1 mL), 5% Zinc sulphate solution (0.5 mL), and acetone (0.5 mL) were pipetted into a 2 mL polypropylene tube (Sarstedt Limited, Beaumont Leys, Leicester, UK) and the contents were then mixed for a minimum of 5 minutes (IKA-Vibrax-VXR mixer, Merck (BDH) Limited, Poole Dorset, UK). The tubes were then centrifuged in a microfuge for a minimum of 2 minutes. The solvent layer was decanted into a 4.5 mL polypropylene tube containing sodium hydroxide (0.1M, 0.1 mL) and methyl-tert-butyl ether (MTBE, 2 mL). The tube was then mixed for a minimum of 5 minutes (IKA-Vibrax-VXR mixer) and then centrifuged at 3500 rpm for 5 minutes. The solvent layer was transferred to a 4.5 mL conical polypropylene tube, placed in a SpeedVac® and evaporated to dryness.
The dried extracts were reconstituted with 0.15 mL 80% methanol and mixed for a minimum of 5 minutes (IKA-Vibrax-VXR mixer) and centrifuged at 3500 rpm for 5 minutes. The extract was transferred to auto sampler tubes (NLG Analytical, Adelphi Mill, Bollington, Cheshire, UK) and placed into the auto-sampler tray which was set at ambient temperature. The auto-sampler was programmed to inject a 0.03 mL aliquot of each extract onto the analytical column.
The AUC for each compound in blood or in brain tissue was calculated using Kinetica 4.4 (InnaPhase Corporation), using a non-compartmental model and the trapezoidal method for AUC calculation.
The partition coefficient (Ri) for each compound after p.o. and i.v. administration was calculated as shown below:
The partition coefficient (R) for each compound after i.v. administration was calculated as shown below:

FKBP12 = FKBP12 (Homo sapiens, UniProt P62942); assay: In vitro FKBP12 binding assay (GdnHCl unfolding); details: relative to literature Kd of rapamycin 0.2 nM
FKBP12, sequence (P62942 whole entry, species assumed): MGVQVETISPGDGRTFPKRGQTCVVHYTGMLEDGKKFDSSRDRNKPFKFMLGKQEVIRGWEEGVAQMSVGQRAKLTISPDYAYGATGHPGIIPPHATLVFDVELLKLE
From the text: FKBP12 reversibly unfolds in the chemical denaturant guandinium hydrochloride (GdnHCl) and the unfolding can be monitored by the change in the intrinsic fluorescence of the protein (Main et al, 1998). Ligands which specifically bind and stabilise the native state of FKBP12 shift the denaturation curve such that the protein unfolds at higher concentrations of chemical denaturant (Main et al, 1999). From the difference in stability, the ligand-binding constant can be determined using equation 1.
where ΔGapp is the apparent difference in free energy of unfolding between free and ligand-bound forms, ΔGD−N^H^2^O is the free energy of unfolding in water of free protein, [L] the concentration of ligand and kd the dissociation constant for the protein-ligand complex (Meiering et al, 1992). The free energy of unfolding can be related to the midpoint of the unfolding transition using the following equation: […]
where mD−N is a constant for a given protein and given denaturant and which is proportional to the change in degree of exposure of residues on unfolding (Tanford 1968 and Tanford 1970), and [D]50% is the concentration of denaturant corresponding to the midpoint of unfolding.
where <mD−N> is the average m-value of the unfolding transition and Δ[D]50% the difference in midpoints for the rapamycin-FKBP12 unfolding transition and unknown-ligand-FKBP12 complex unfolding transition. Under conditions where [L]>Kd, then, ΔΔGD−N, can be related to the relative Kds of the two compounds through equation 4: […]

Caco-2 cells = assay: Caco-2 permeation assay; details: 0.01 mM
Procedure: Confluent Caco-2 cells (Li, A. P., 1992; Grass, G. M., et al., 1992, Volpe, D. A., et al., 2001) in a 24 well Corning Costar Transwell format were provided by In Vitro Technologies Inc. (IVT Inc., Baltimore, Md., USA). The apical chamber contained 0.15 mL Hank's balanced buffer solution (HBBS) pH 7.4, 1% DMSO, 0.1 mM Lucifer Yellow. The basal chamber contained 0.6 mL HBBS pH 7.4, 1% DMSO. Controls and tests were incubated at 37° C. in a humidified incubator, shaken at 130 rpm for 1 h. Lucifer Yellow permeates via the paracellular (between the tight junctions) route only, a high Apparent Permeability (Papp) for Lucifer Yellow indicates cellular damage during assay and all such wells were rejected. […] Compounds were tested in a uni- and bi-directional format by applying compound to the apical or basal chamber (at 0.01 mM). Compounds in the apical or basal chambers were analysed by HPLC-MS (Method A, see Materials & Methods). Results were expressed as Apparent Permeability, Papp, (nm/s) and as the Flux Ratio (A to B versus B to A).
[formula] • Volume Acceptor: 0.6 ml (A>B) and 0.15 ml (B>A) • Area of monolayer: 0.33 cm2 • Δtime: 60 min
A positive value for the Flux Ratio indicates active efflux from the apical surface of the cells.

[2] = 5 mg/kg p.o., Prophylactic regime
[3] = 5 mg/kg p.o., Therapeutic regime
[4] = 15 mg/kg p.o., Prophylactic regime
[5] = 15 mg/kg p.o., Therapeutic regime

COC1CC2CCC(C)C(O)(O2)C(=O)C(=O)N2CCCCC2C(=O)OC(C(C)CC2CCC(O)CC2)CC(=O)C(C)C=C(C)C(O)C(OC)C(=O)C(C)CC(C)C=CC=CC=C1C (stereo not drawn) [39-desmethoxyrapamycin]
average calculated tumour volume, Day 23 (mm^3) (U87-MG): 1.25 mm^3 | Cumulative score Mean ± St Dev. (EAE; [2]): 17 ± 4.6 | Duration (days) Mean ± St Dev. (EAE; [2]): 10 ± 1.8 days | Onset Mean ± St Dev. (EAE; [2]): 12 ± 2.1 | Cumulative score Mean ± St Dev. (EAE; [3]): 30 ± 3.1 | Duration (days) Mean ± St Dev. (EAE; [3]): 15 ± 1.3 days | Onset Mean ± St Dev. (EAE; [3]): 10 ± 1.0 | Cumulative score Mean ± St Dev. (EAE; [4]): 22 ± 22 | Duration (days) Mean ± St Dev. (EAE; [4]): 10 ± 3.4 days | Onset Mean ± St Dev. (EAE; [4]): 12 ± 2.4 | Cumulative score Mean ± St Dev. (EAE; [5]): 32 ± 5.7 | Duration (days) Mean ± St Dev. (EAE; [5]): 16 ± 3.3 days | Onset Mean ± St Dev. (EAE; [5]): 9 ± 1.4 | efficacy in the EAE model compared to cyclophosphamide (EAE; 5 and 15 mg/kg, prophylactic and therapeutic regime): equivalent efficacy in this model to cyclophosphamide | AUCBLOOD i.v. ([1]; iv, 3 mg/kg): 15444.3 | AUCBRAIN i.v. ([1]; iv, 3 mg/kg): 24911.4 | AUCBLOOD p.o. ([1]; po, 10 mg/kg): 16856.5 | AUCBRAIN p.o. ([1]; po, 10 mg/kg): 1697.69 | Kd (FKBP12): 0.7 nM | Caco-2: Efflux Ratio (Caco-2 cells; bi-directional format): 15 | Caco-2: Papp (Caco-2 cells; pH 7.4, 1 h): 2.9 ×10⁻⁶ cm/s
